Experimental data from patent US7049331B2, “1,2,4-thiadiazole derivatives as melanocortin receptor modulators” (Ortho-McNeil Pharmaceutical, Inc., priority 2001, dated 2006).
Where two headings read alike, the source gives them in different places.

Experiments:
[1] = test system: Male Long-Evans rats, facial nerve compression; experiment: In vivo Facial Nerve Compression Model; set-up: species or system rat; settings: for Percent Recovery of whisker movement D9 / Percent Recovery of whisker movement D10 / Percent Recovery of whisker movement D11 / Percent Recovery of whisker movement D12 / Percent Recovery of whisker movement D13 / Percent Recovery of whisker movement D14: test compounds p.o. 20 mg/kg bid, αMSH s.c. 70 ug/each 48 hr; for Percent Recovery of whisker movement D9: % of sham-operated side; for recovery time to restore whisker muscle movement: lesioned rats vs vehicle controls (p<0.05), p.o. 20 mg/kg bid
Excerpt: The ability of test compound to provide neuro-protective or neuro-regenerative effects was investigated in a facial nerve compression model. Facial nerve motor axons arise exclusively from neurons within the pons in a well-defined nucleus. Facial nerve compression results in retrograde reactions proximal to the lesion site and Wallerian degeneration at its distal part, which causes diminished whisker movement on the lesioned side.
Male Long-Evans rats (150–180 g) were anesthetized with 3–5% isoflorane for induction and 2% for maintenance during the surgical procedures. The right facial nerve was exposed and compressed with forceps for 30 sec at its exit from the stylomastoid foramen. The left facial nerve was sham-operated and served as an internal control. […] The following morphological abnormalities associated with the functional deficit were observed:
After recovery from anesthesia, the rats were randomly divided into groups for dosing with vehicle, αMSH or test compound, with 6 animals per group. αMSH (s.c., 70 ug/each 48 hr) was used as a positive control. Test compounds were dosed p.o. at 20 mg/kg bid for 14 days. Restoration of whisker movement was monitored daily after the operation using two criteria:
(1) frequency of whisker movement on the lesioned side relative to the opposite side (sham-operated) which served as the baseline control
(2) semi-quantitative measurements (0 to 4+) on strength of the whisker muscles, characterized based on observation of the percentage of moved whiskers, muscle tone of whisker muscles, and the position of the nose. For all observations, the experimental design was blind to the behavioral observer.
The recovery rate of the whisker movement was expressed as percentage of its own internal control (sham-operated), as listed in Table 8.

Cortical Cells = experiment: Neurite Cell Outgrowth Assay, cortical cells; assay type: cell-based; settings: Rattus norvegicus; 50 nM; percent change over the vehicle response; NA = no change/not active
Method in brief: (§1)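 Rat E18 hippocampal or cortical neurons plated at 30,000 cells/well, treated 24 h after plating with compound at 50 nM, refreshed on day 3. At one week, fixed and MAP-2 immunostained with FITC secondary, read by fluorescence; outgrowth given as percent change versus vehicle.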

Food-Deprived Rats = experiment: Rodent Feeding: Food Intake in Food-Deprived Rats (MC-4); assay type: in vivo, rat; settings: Rattus norvegicus
Excerpt: Rodent Feeding: Food Intake in Food-Deprived Rats (MC-4)
Male Long-Evans rats (180–200 grams) were housed individually and maintained on a once-a-day feeding schedule (i.e.10 a.m. until 4 p.m.) for five days following quarantine to allow the animals to acclimate to feeding on powdered chow (#5002 PMI Certified Rodent Meal) during the allotted time. The chow was made available in an open jar, anchored in the cage by a wire, with a metal follower covering the food to minimize spillage. Water was available ad-libitum.
Animals were fasted for 18 hours prior to testing. At the end of the fasting period, animals were administered either a test compound or vehicle. Vehicle and test compound were administered either orally (5 mL/kg) 60 minutes prior to the experiment, subcutaneously (1 mL/kg) 30 minutes prior to the experiment, or intraperitoneally (1 mL/kg) 30 minutes prior to the experiment. Test compounds were administered orally as a suspension in aqueous 0.5% methylcellulose-0.4% Tween 80, or intraperitoneally as a solution or suspension in PEG 200; compound concentrations typically ranged from 1 mg/kg to 100 mg/kg, preferably from 10–30 mg/kg. Food intake was measured at 2, 4, and 6 hours after administration by weighing the special jar containing the food before the experiment and at the specified times. Upon completion of the experiment, all animals were given a one-week washout period before re-testing.
Following the procedure described above, select compounds of the present invention were tested to measure the effect on food intake in fasted rats, as listed in Table 5 and 6.

Hippocampal Cells = experiment: Neurite Cell Outgrowth Assay, hippocampal cells; assay type: cell-based; settings: Rattus norvegicus; 50 nM; percent change over the vehicle response; NA = no change/not active
Method in brief: as §1

[2] = ip, 2 h, ip, read-out: Change in Food Intake 0–2 hrs (%)
[3] = ip, 6 h, ip, read-out: Change in Food Intake 2–6 hrs (%)
[4] = po, 2 h, po, read-out: Change in Food Intake 0–2 hrs (%)
[5] = po, 6 h, po, read-out: Change in Food Intake 2–6 hrs (%)

Row | Structure (SMILES) | Percent Recovery of whisker movement D9 [1] [%] | Percent Recovery of whisker movement D10 [1] [%] | Percent Recovery of whisker movement D11 [1] [%] | Percent Recovery of whisker movement D12 [1] [%] | Percent Recovery of whisker movement D13 [1] [%] | Percent Recovery of whisker movement D14 [1] [%] | recovery time to restore whisker muscle movement [1] | activation at 0.05 µM (Cortical Cells) [%] | change in vivo at 30 mg/kg (Food-Deprived Rats; [4]) [%] | change in vivo at 30 mg/kg (Food-Deprived Rats; [5]) [%] | also measured
1 | COc1ccccc1-[n+]1sc(Nc2ccc(C)cc2)nc1-c1ccccc1.[Br-] [Compound 31, 2-(2-methoxyphenyl)-3-phenyl-5-p-tolylamino-[1,2,4]thiadiazol-2-ium] | 0 | 3.5 | 67.8 | 98.5 | 100 | 100 | accelerated the recovery time | 16 | -23.6 | 31.5 | change in vivo at 1 mg/kg (Food-Deprived Rats; [2]): -20.6%; change in vivo at 3 mg/kg (Food-Deprived Rats; [2]): -37.8%; change in vivo at 1 mg/kg (Food-Deprived Rats; [3]): -71.2%; change in vivo at 3 mg/kg (Food-Deprived Rats; [3]): -50%; change in vivo at 1 mg/kg (Food-Deprived Rats; [4]): 1.2%; change in vivo at 3 mg/kg (Food-Deprived Rats; [4]): -9%; change in vivo at 10 mg/kg (Food-Deprived Rats; [4]): -10.1%; change in vivo at 1 mg/kg (Food-Deprived Rats; [5]): 19.5%; change in vivo at 3 mg/kg (Food-Deprived Rats; [5]): 52.1%; change in vivo at 10 mg/kg (Food-Deprived Rats; [5]): 39.7%
2 | COc1ccc(N(C)c2nc(-c3ccccc3)[n+](-c3ccc(C)cc3)s2)cc1 [Compound 50] | – | – | – | – | – | – | – | – | – | – | activation at 0.05 µM (Hippocampal Cells): 46%
3 | c1ccc(CNc2nc(-c3ccccc3)[n+](-c3ccccc3)s2)cc1 [Compound 84] | 0 | 4.8 | 35.1 | 90.0 | 98.3 | 100 | accelerated the recovery time | 17 | -7 | 32 | –
